In US8808702B2, “Sulfide, sulfoxide and sulfone chalcone analogues, derivatives thereof and therapeutic uses thereof” (Temple University-of the Commonwealth System of Higher …, priority 2006, dated 2014):
Where two headings read alike, the source gives them in different places.

Key:
[1] = test system: K562 (chronic myelogenous leukaemia); assay: Effect of compounds on tumor cell lines (assay of Latham et al.), K562; assay type: cell-based; details: K562 cells, read-out: K 562 potency (IC50)
Procedure: (§1) The effect of the compounds of the invention on tumor cells was determined by the assay described by Latham et al., Oncogene 12:827-837 (1996). Tumor cells K562 (chronic myelogenous leukaemia) or DU145 (prostate cancer) were plated in 12-well dishes at a cell density of 2.5×10^4 cells well. The plated cells were treated 24 hours later with a compound of the invention dissolved in DMSO at multiple concentrations ranging from 1 μM to 100 μM. The plates were examined 96 hours later under an inverted microscope, Olympus CK-2 using an 10× objective, and compound activity was noted by physical observation. When necessary, the total number of viable cells was determined by trypsinizing the wells and counting the number of viable cells, as determined by trypan blue exclusion, using a hemacytometer.
(§2) The representative compounds listed in Tables 1-5 are shown by way of illustration, and are not intended to limit the scope of the invention. The compounds are prepared and tested by methods based on those described above, except that the compound of Table 5 was dissolved in DMSO at multiple concentrations ranging from 0.1 μM to 100 μM

DU145 (prostate cancer) = assay: Effect of compounds on tumor cell lines (assay of Latham et al.), DU145; assay type: cell-based; details: DU145 cells, read-out: DU 145 potency (IC50)
Procedure: as §1, §2

[2] = 96 hours after treatment, 1 μM to 100 μM
[3] = Table 1, examined 96 hours after treatment, 1 μM to 100 μM in DMSO

IC50 [1, 2]	IC50 (DU145 (prostate cancer); [2])	Structure (SMILES)	also measured
1 to 10 µM	1 to 10 µM	O=C(C(=Cc1ccc(F)c([N+](=O)[O-])c1)SCc1ccc(Br)cc1)c1c(F)c(F)c(F)c(F)c1F [Example 310]	
		Cc1ccc(SC(=Cc2c[nH]c3ccc(Br)cc23)C(=O)c2ccc(Cl)cc2)cc1 [Example 106]	IC50 [1, 3]: 1 to 10 µM; IC50 (DU145 (prostate cancer); [3]): 1 to 10 µM
		Cc1ccc(SC(=Cc2c[nH]c3ccccc23)C(=O)c2ccc(Cl)cc2)cc1 [Example 81]	IC50 [1, 3]: 1 to 10 µM; IC50 (DU145 (prostate cancer); [3]): 10 to 25 µM
1 to 10 µM	50 to 100 µM	CCOc1ccc(C=C(SCc2ccccc2Cl)C(=O)c2ccc(Cl)cc2)cc1OC [Example 131]	
1 to 10 µM	50 to 100 µM	O=C(C(=Cc1ccc(Cl)cc1)SCc1ccc(Cl)cc1)c1ccccc1Cl [Example 217]	
		Cc1ccc(SC(=Cc2ccc(N(C)C)cc2)C(=O)c2ccc(Br)cc2)cc1 [Example 101]	IC50 [1, 3]: 50 to 100 µM; IC50 (DU145 (prostate cancer); [3]): > 100 µM
1 to 10 µM	1 to 10 µM	CCN(CC)CCNC(=O)c1c(C)[nH]c(/C=C(/SCc2ccc(Br)cc2)C(=O)c2ccc(Br)cc2)c1C [Example 162]	
> 100 µM	> 100 µM	Cc1ccsc1C=C(SCc1ccc(Cl)cc1)C(=O)c1ccc([N+](=O)[O-])cc1 [Example 207]	
		O=C(C(=Cc1ccccc1OCc1ccccc1)Sc1ccc(Br)cc1)c1ccc(Cl)cc1 [Example 21]	IC50 [1, 3]: 10 to 25 µM; IC50 (DU145 (prostate cancer); [3]): 10 to 25 µM
1 to 10 µM	10 to 25 µM	O=C(C(=Cc1ccc(Cl)cc1)SCc1ccc(Cl)cc1)c1ccc(Br)cc1 [Example 218]	
1 to 10 µM	10 to 25 µM	COc1ccccc1C=C(SCc1ccc(Cl)cc1)C(=O)c1ccc([N+](=O)[O-])cc1 [Example 200]	
10 to 25 µM	10 to 25 µM	Cc1ccc(CSC(=Cc2ccc(N(C)C)cc2)C(=O)c2ccc(Cl)cc2)cc1 [Example 285]	
> 100 µM	25 to 50 µM	O=C(C(=Cc1c(O)cc(O)cc1O)SCc1ccc(Cl)cc1Cl)c1ccc(Cl)cc1 [Example 115]	
		COC(=O)c1ccc(C(=O)/C(=C\c2ccc(F)c([N+](=O)[O-])c2)SCc2ccc(Br)cc2)cc1 [Example 441, (E)-methyl-4-(2-(4-bromobenzylthio)-3-(4-fluoro-3-nitrophenyl)acryloyl)benzoate]	IC50 ([1]; Homo sapiens, Table 5, examined 96 hours after treatment, 0.1 μM to 100 μM in DMSO): ≤ 1 µM; IC50 (DU145 (prostate cancer); Homo sapiens, DU-145, Table 5, examined 96 hours after treatment, 0.1 μM to 100 μM in DMSO): ≤ 1 µM
		CN(C)c1ccc(C=C(Sc2ccccc2Br)C(=O)c2ccc(Br)cc2)cc1 [Example 12]	IC50 [1, 3]: > 100 µM; IC50 (DU145 (prostate cancer); [3]): > 100 µM
10 to 25 µM	10 to 25 µM	O=C(C(=Cc1ccc(O)c([N+](=O)[O-])c1)SCc1ccccc1Cl)c1ccc(Cl)cc1 [Example 132]	
25 to 50 µM	10 to 25 µM	O=C(C(=Cc1ccc(O)c(C(=O)O)c1)SCc1ccc(Br)cc1)c1ccc(Br)cc1 [Example 151]	
10 to 25 µM	10 to 25 µM	O=C(C(=Cc1c[nH]c2ccccc12)SCc1ccc(Cl)cc1Cl)c1ccc(Cl)cc1 [Example 118]	
		O=C(/C(=C\c1cc(Br)c(O)c(Br)c1)S(=O)(=O)Cc1ccc(Br)cc1)c1ccc(Br)cc1 [Example 368]	IC50 ([1]; Homo sapiens, Table 4, examined 96 hours after treatment, 1 μM to 100 μM in DMSO): 25 to 50 µM; IC50 (DU145 (prostate cancer); Homo sapiens, DU-145, Table 4, examined 96 hours after treatment, 1 μM to 100 μM in DMSO): 25 to 50 µM

IC50 [1, 2]	IC50 (DU145 (prostate cancer); [2])	Structure (SMILES)	also measured
1 to 10 µM	10 to 25 µM	O=C(C(=Cc1cccc(Cl)c1Cl)SCc1ccc(Cl)cc1)c1ccc(Cl)cc1 [Example 191]	
		COc1ccc(C=C(Sc2ccc(Br)cc2)C(=O)c2ccc(Br)cc2)cc1 [Example 47]	IC50 [1, 3]: 1 to 10 µM; IC50 (DU145 (prostate cancer); [3]): 25 to 50 µM
10 to 25 µM	10 to 25 µM	COc1ccccc1C=C(SCc1ccc(C)cc1)C(=O)c1ccc(Cl)cc1 [Example 279]	
		Cc1ccc(SC(=Cc2ccc(-c3ccccc3)cc2)C(=O)c2ccc(Cl)cc2)cc1 [Example 111]	IC50 [1, 3]: 25 to 50 µM; IC50 (DU145 (prostate cancer); [3]): 50 to 100 µM
1 to 10 µM	25 to 50 µM	O=C(C(=Cc1ccc(Br)cc1)SCc1ccc(F)cc1)c1ccc(Br)cc1 [Example 253]	
≤ 1 µM	≤ 1 µM	O=C(/C(=C\c1ccc(F)c([N+](=O)[O-])c1)SCc1ccc(F)cc1)c1ccc(O)cc1 [Example 342]	
10 to 25 µM	10 to 25 µM	Nc1ccc(/C=C(/SCc2ccc(F)cc2)C(=O)c2ccc(C(=O)O)cc2)cc1[N+](=O)[O-] [Example 333]	
10 to 25 µM	10 to 25 µM	Cc1ccc(CSC(=Cc2cc(Cl)cc(Cl)c2)C(=O)c2ccc(Cl)cc2)cc1 [Example 281]	
		COc1ccc(C=C(Sc2ccc(C)cc2)C(=O)c2ccc(Cl)cc2)cc1O [Example 79]	IC50 [1, 3]: 1 to 10 µM; IC50 (DU145 (prostate cancer); [3]): 1 to 10 µM
		Cc1ccc(SC(=Cc2c[nH]c3ccc(Cl)cc23)C(=O)c2ccc(Br)cc2)cc1 [Example 107]	IC50 [1, 3]: 1 to 10 µM; IC50 (DU145 (prostate cancer); [3]): 1 to 10 µM
10 to 25 µM	50 to 100 µM	COc1cc(OC)c(C=C(SCc2ccccc2Cl)C(=O)c2ccc(Cl)cc2)c(OC)c1 [Example 126]	
1 to 10 µM	1 to 10 µM	CN1CCN(CCCNC(=O)c2ccc(C(=O)C(=Cc3ccc(F)c([N+](=O)[O-])c3)SCc3ccc(Br)cc3)cc2)CC1 [Example 314]	
50 to 100 µM	50 to 100 µM	Cc1ccc(CSC(=Cc2ccc(C)s2)C(=O)c2ccc(Cl)cc2)cc1 [Example 298]	
1 to 10 µM	1 to 10 µM	Cc1ccc(CSC(=Cc2cc([N+](=O)[O-])ccc2F)C(=O)c2ccc(Cl)cc2)cc1 [Example 276]	
≤ 1 µM	1 to 10 µM	O=C(C(=Cc1ccc(C(=O)N2CCN(CCO)CC2)cc1)SCc1ccc(F)cc1)c1ccc(F)c([N+](=O)[O-])c1 [Example 331]	
50 to 100 µM	50 to 100 µM	Cc1[nH]c(/C=C(/SCc2ccc(Br)cc2)C(=O)c2ccc(Br)cc2)c(C)c1C(=O)O [Example 167]	
25 to 50 µM	25 to 50 µM	CCOc1ccc(C=C(SCc2ccc(C)cc2)C(=O)c2ccc(Cl)cc2)cc1OC [Example 289]	
10 to 25 µM	10 to 25 µM	N#Cc1ccc(C(=O)/C(=C\c2ccc(O)c([N+](=O)[O-])c2)SCc2ccc(Br)cc2)cc1 [Example 182]	
1 to 10 µM	10 to 25 µM	COc1ccccc1C=C(SCc1ccccc1F)C(=O)c1ccc(Cl)cc1 [Example 133]	

IC50 [1, 2]	IC50 (DU145 (prostate cancer); [2])	Structure (SMILES)	also measured
1 to 10 µM	1 to 10 µM	O=C(C(=Cc1ccc(O)cc1)SCc1ccc(Cl)c(Cl)c1)c1ccc(Cl)cc1 [Example 144]	
10 to 25 µM	1 to 10 µM	O=C(C(=Cc1cc(Br)c(O)c(Br)c1)SCc1ccc(Br)cc1)c1ccc(Br)cc1 [Example 147]	
≤ 1 µM	1 to 10 µM	O=C(O)c1ccc(C(=O)C(=Cc2ccc(Cl)c([N+](=O)[O-])c2)SCc2ccc(Cl)cc2Cl)cc1 [Example 300]	
		O=C(C(=Cc1ccc(Cl)cc1)Sc1ccc(Cl)cc1)c1ccc(Cl)cc1 [Example 53]	IC50 [1, 3]: 1 to 10 µM; IC50 (DU145 (prostate cancer); [3]): 1 to 10 µM
≤ 1 µM	1 to 10 µM	O=C(O)c1ccc(C(=O)/C(=C\c2ccc(Cl)c([N+](=O)[O-])c2)SCc2ccc(Br)cc2)cc1 [Example 168]	
		CSc1ccc(C=C(Sc2ccc(Br)cc2)C(=O)c2ccc(Cl)cc2)cc1 [Example 46]	IC50 [1, 3]: 1 to 10 µM; IC50 (DU145 (prostate cancer); [3]): 1 to 10 µM
10 to 25 µM	10 to 25 µM	Cc1ccc(CSC(=Cc2sccc2C)C(=O)c2ccc(Cl)cc2)cc1 [Example 283]	
≤ 1 µM	1 to 10 µM	CN1CCN(CCNc2ccc(C=C(SCc3ccc(F)cc3)C(=O)c3ccc(F)cc3)cc2[N+](=O)[O-])CC1 [Example 329]	
50 to 100 µM	> 100 µM	Cc1ccc(C=C(SCc2ccc(Cl)cc2)C(=O)c2ccc(Br)cc2)s1 [Example 229]	
		O=C(C(=Cc1ccc(O)c(Br)c1)Sc1ccc(Br)cc1)c1c(F)c(F)c(F)c(F)c1F [Example 27]	IC50 [1, 3]: 1 to 10 µM; IC50 (DU145 (prostate cancer); [3]): 1 to 10 µM
≤ 1 µM	1 to 10 µM	O=C(O)c1ccc(C(=O)C(=Cc2ccc(F)c([N+](=O)[O-])c2)SCc2ccc(Cl)cc2Cl)cc1 [Example 301]	
1 to 10 µM	10 to 25 µM	COc1ccc(C=C(SCc2ccccc2Cl)C(=O)c2ccc(Cl)cc2)c(OC)c1OC [Example 125]	
		COc1ccccc1C=C(Sc1ccc(C)cc1)C(=O)c1ccc(Cl)cc1 [Example 75]	IC50 [1, 3]: 10 to 25 µM; IC50 (DU145 (prostate cancer); [3]): 25 to 50 µM
		COc1ccc(C=C(Sc2ccc(C)cc2)C(=O)c2ccc(Cl)cc2)cc1 [Example 100]	IC50 [1, 3]: 1 to 10 µM; IC50 (DU145 (prostate cancer); [3]): 1 to 10 µM
50 to 100 µM	50 to 100 µM	CCN(CC)CCNC(=O)c1c(C)[nH]c(C=C(SCc2ccc(F)cc2)C(=O)c2ccc(C(=O)O)cc2)c1C [Example 248]	
		Cc1ccc(SC(=Cc2c(O)cc(O)cc2O)C(=O)c2ccc(Br)cc2)cc1 [Example 67]	IC50 [1, 3]: 50 to 100 µM; IC50 (DU145 (prostate cancer); [3]): > 100 µM
		CCOc1ccc(C=C(Sc2ccc(C)cc2)C(=O)c2ccc(Cl)cc2)cc1OC [Example 93]	IC50 [1, 3]: 10 to 25 µM; IC50 (DU145 (prostate cancer); [3]): 25 to 50 µM
25 to 50 µM	> 100 µM	CSc1ccc(C=C(SCc2ccc(C)cc2)C(=O)c2ccc(Br)cc2)cc1 [Example 293]	
